Measured values taken from the supplement of paper PMC8149375.

Tests used:
Settings in all cases: treatment: drug alone; 5 days
[1] = tested on: 769-P; test: GI50, drug alone; higher = less potent
Experimental: (§1)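 Primary HTS: 8 RCC cell lines treated with 8 doses (up to 10 uM) of each library drug alone for 5 days; viability read by CellTiter-Glo and normalised to DMSO. GI50 was fitted with XLfit (4-parameter), AUC is the area under the dose-response curve, and minimum viability is the lowest fraction of DMSO viability across doses.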

[2] = tested on: 786-O; test: GI50, drug alone; higher = less potent
Experimental: as §1

[3] = tested on: A498; test: GI50, drug alone; higher = less potent
Experimental: as §1

[4] = tested on: ACHN; test: GI50, drug alone; higher = less potent
Experimental: as §1

[5] = tested on: CAKI-1; test: GI50, drug alone; higher = less potent
Experimental: as §1

[6] = tested on: SN12C; test: GI50, drug alone; higher = less potent
Experimental: as §1

[7] = tested on: TK-10; test: GI50, drug alone; higher = less potent
Experimental: as §1

[8] = tested on: UO-31; test: GI50, drug alone; higher = less potent
Experimental: as §1

[9] = tested on: 769-P; test: minimum viability across doses, drug alone, relative to DMSO (fraction); higher = less growth inhibition
Experimental: as §1

[10] = tested on: 786-O; test: as above
Experimental: as §1

[11] = tested on: A498; test: as above
Experimental: as §1

[12] = tested on: ACHN; test: as above
Experimental: as §1

[13] = tested on: CAKI-1; test: as above
Experimental: as §1

[14] = tested on: SN12C; test: as above
Experimental: as §1

[15] = tested on: TK-10; test: as above
Experimental: as §1

[16] = tested on: UO-31; test: as above
Experimental: as §1

[17] = tested on: 769-P; test: AUC of dose-response viability curve, drug alone (arbitrary (AUC of normalised viability)); higher = less growth inhibition
Experimental: as §1

[18] = tested on: 786-O; test: as above
Experimental: as §1

[19] = tested on: A498; test: as above
Experimental: as §1

[20] = tested on: ACHN; test: as above
Experimental: as §1

[21] = tested on: CAKI-1; test: as above
Experimental: as §1

[22] = tested on: SN12C; test: as above
Experimental: as §1

[23] = tested on: TK-10; test: as above
Experimental: as §1

[24] = tested on: UO-31; test: as above
Experimental: as §1

| GI50, drug alone [2] | GI50, drug alone [4] | SMILES | GI50, drug alone [1] | GI50, drug alone [3] | GI50, drug alone [5] | GI50, drug alone [6] | GI50, drug alone [7] | GI50, drug alone [8] | minimum viability across doses [9] | minimum viability across doses [10] | minimum viability across doses [11] | minimum viability across doses [12] | minimum viability across doses [13] | minimum viability across doses [14] | minimum viability across doses [15] | minimum viability across doses [16] | AUC of dose-response viability curve [17] | AUC of dose-response viability curve [18] | AUC of dose-response viability curve [19] | AUC of dose-response viability curve [20] | AUC of dose-response viability curve [21] | AUC of dose-response viability curve [22] | AUC of dose-response viability curve [23] | AUC of dose-response viability curve [24] |
| --- | --- | --- | --- | --- | --- | --- | --- | --- | --- | --- | --- | --- | --- | --- | --- | --- | --- | --- | --- | --- | --- | --- | --- | --- |
| > 10 µM | > 10 µM | CCc1cc(Nc2nccc(-c3c(-c4ccc(OC)c(C(=O)Nc5c(F)cccc5F)c4)nc4ccccn34)n2)c(OC)cc1N1CCC(N2CCN(S(C)(=O)=O)CC2)CC1 | > 10 µM | > 10 µM | > 10 µM | > 10 µM | > 10 µM | > 10 µM | 0.828 | 0.785 | 1.04 | 0.804 | 0.635 | 0.858 | 0.865 | 1 | 3.26 | 3.37 | 4.54 | 3.03 | 3.12 | 3.17 | 3.23 | 5.43 |
| 6.61 µM | > 10 µM | C[C@@H]1CN(CC(=O)Nc2ccc3c(c2)Cc2cccc(-c4cc(=O)cc(N5CCOCC5)o4)c2S3)C[C@H](C)O1 | > 10 µM | > 10 µM | 4 µM | > 10 µM | > 10 µM | > 10 µM | 0.855 | 0.35 | 0.893 | 0.548 | 0.224 | 0.646 | 0.701 | 1.35 | 3.53 | 3.37 | 4.69 | 3.15 | 2.8 | 3.35 | 3.25 | 6.19 |
| > 10 µM | 0.136 µM | c1ccc2c(CCNc3ccc(Nc4ccncc4)cc3)c[nH]c2c1 | 0.532 µM | 1.36 µM | 0.66 µM | 0.881 µM | 1.03 µM | 0.115 µM | 0.0434 | 0.00353 | 0.022 | 0.00286 | 0.0912 | 0.0036 | 0.00837 | 0.00809 | 2.32 | 0.978 | 2.76 | 1.55 | 2.31 | 2.28 | 2.34 | 1.6 |
| > 10 µM | 0.0705 µM | O=c1cc(-c2cccc3c2Sc2ccccc2S3)oc(N2CCOCC2)c1 | > 10 µM | > 10 µM | > 10 µM | > 10 µM | > 10 µM | > 10 µM | 0.864 | 0.638 | 0.864 | 0.496 | 0.648 | 0.864 | 0.791 | 0.981 | 3.21 | 2.98 | 3.49 | 2.57 | 3.06 | 3.23 | 3.14 | 4 |
| 0.0843 µM | 0.387 µM | CCn1cc(-c2ccnc3[nH]c(-c4cccc(CN(C)C)c4)cc23)c(-c2ccc(NC(=O)N(C)C)cc2)n1 | 1.44 µM | 3.07 µM | 0.49 µM | 0.686 µM | 1.53 µM | 6.09 µM | 0.165 | 0.0121 | 0.121 | 0.0251 | 0.0471 | 0.0272 | 0.0985 | 0.0615 | 2.8 | 1.97 | 3.74 | 2.08 | 2.3 | 2.2 | 2.54 | 5.13 |
| 0.0194 µM | 0.0891 µM | C[C@@H](Oc1cc(-n2cnc3ccc(CN4CCN(C)CC4)cc32)sc1C(N)=O)c1ccccc1C(F)(F)F | 0.0697 µM | > 10 µM | 0.153 µM | 0.12 µM | 1.34 µM | 0.0449 µM | 0.0562 | 0.00395 | 0.599 | 0.172 | 0.17 | 0.234 | 0.235 | 0.00269 | 1.49 | 0.807 | 2.98 | 1.75 | 1.77 | 1.92 | 2.36 | 1.4 |
| > 10 µM | 2.19 µM | CC(C)(C)Cn1c(N)nc2ccc(-c3[nH]c(C(C)(C)C)nc3-c3ccc(F)cc3)nc21.CS(=O)(=O)O.CS(=O)(=O)O | > 10 µM | > 10 µM | 8.16 µM | > 10 µM | 6.63 µM | > 10 µM | 0.709 | 0.636 | 0.972 | 0.407 | 0.512 | 0.811 | 0.564 | 0.733 | 2.98 | 2.91 | 4.16 | 2.41 | 2.63 | 3.15 | 2.43 | 3.5 |
| 0.772 µM | 0.592 µM | COc1ccc(-c2ccc3c(N4CCOCC4)nc(N4C[C@@H](C)O[C@@H](C)C4)nc3n2)cc1CO | 2.12 µM | 4.9 µM | 1.08 µM | 1.36 µM | 0.724 µM | 1.63 µM | 0.214 | 0.26 | 0.379 | 0.141 | 0.174 | 0.223 | 0.222 | 0.012 | 2.66 | 2.03 | 3.62 | 2.23 | 2.53 | 2.49 | 2.23 | 2.98 |
| 1.49 µM | 3.02 µM | CNC(=O)c1c(F)cccc1Nc1nc(Nc2cc3c(cc2OC)CCN3C(=O)CN(C)C)nc2[nH]ccc12 | 2.4 µM | 8.55 µM | 3.46 µM | 4.02 µM | 3.14 µM | 8.35 µM | 0.016 | 0.00507 | 0.0165 | 0.00292 | 0.00594 | 0.00561 | 0.142 | 0.0181 | 2.73 | 2.4 | 4.86 | 2.82 | 2.94 | 2.88 | 2.69 | 4.52 |
| > 10 µM | > 10 µM | Cn1cc(-c2ccc3nnc(C(F)(F)c4ccc5ncccc5c4)n3n2)cn1 | > 10 µM | > 10 µM | > 10 µM | > 10 µM | > 10 µM | > 10 µM | 0.868 | 0.862 | 1.05 | 0.792 | 0.59 | 0.93 | 0.799 | 1.12 | 3.38 | 3.59 | 4.15 | 3.24 | 2.4 | 3.44 | 3.33 | 4.62 |
